Assay results published in US4753955A, “Benzimidazole derivatives” (Tokyo Tanabe Company, Ltd., priority 1986, dated 1988).

Experiments:
[1] = Stability during storage (60° C., 75% R.H., 6 days), residual rate by thin layer densitometry; format: physicochemical; settings: storage at 75% r.h.
Procedure: In the thin layer densitometry, spots each containing 100 μg of a test sample were applied onto thin layer plates. The spots were developed with a mixture of chloroform and ethanol (10:1, by volume). As the thin layer plates, TLC Plate Silica Gel 60 F254 (10×20 cm, 0.25 mm in thickness, a product of Merck & Co., Inc.) was used. The distance of development was 15 cm. The densitometry was effected by use of a Shimadzu Dichroic Chromatoscanner CS-910 (manufactured by Shimadzu Corporation) at a wavelength of 280 or 300 nm.

[2] = molecular target: T1, (H^+ +K^+)-ATPase (Sus scrofa, UniProt P19156); assay: (H^+ +K^+)-ATPase inhibiting activity; format: biochemical; settings: enzyme from hog fundus ventriculi; incubation with compound 35° to 37° C., 5 to 30 minutes
T1 construct: prepared from the fundus ventriculi of fresh hog stomachs; from tissue; host or cells: fundus ventriculi of fresh hog stomachs, prepared by the method of Saccomani et al. (J. Biol. Chem. 251, 7690, 1976)
T1 sequence (P19156 2-1034 limits assumed): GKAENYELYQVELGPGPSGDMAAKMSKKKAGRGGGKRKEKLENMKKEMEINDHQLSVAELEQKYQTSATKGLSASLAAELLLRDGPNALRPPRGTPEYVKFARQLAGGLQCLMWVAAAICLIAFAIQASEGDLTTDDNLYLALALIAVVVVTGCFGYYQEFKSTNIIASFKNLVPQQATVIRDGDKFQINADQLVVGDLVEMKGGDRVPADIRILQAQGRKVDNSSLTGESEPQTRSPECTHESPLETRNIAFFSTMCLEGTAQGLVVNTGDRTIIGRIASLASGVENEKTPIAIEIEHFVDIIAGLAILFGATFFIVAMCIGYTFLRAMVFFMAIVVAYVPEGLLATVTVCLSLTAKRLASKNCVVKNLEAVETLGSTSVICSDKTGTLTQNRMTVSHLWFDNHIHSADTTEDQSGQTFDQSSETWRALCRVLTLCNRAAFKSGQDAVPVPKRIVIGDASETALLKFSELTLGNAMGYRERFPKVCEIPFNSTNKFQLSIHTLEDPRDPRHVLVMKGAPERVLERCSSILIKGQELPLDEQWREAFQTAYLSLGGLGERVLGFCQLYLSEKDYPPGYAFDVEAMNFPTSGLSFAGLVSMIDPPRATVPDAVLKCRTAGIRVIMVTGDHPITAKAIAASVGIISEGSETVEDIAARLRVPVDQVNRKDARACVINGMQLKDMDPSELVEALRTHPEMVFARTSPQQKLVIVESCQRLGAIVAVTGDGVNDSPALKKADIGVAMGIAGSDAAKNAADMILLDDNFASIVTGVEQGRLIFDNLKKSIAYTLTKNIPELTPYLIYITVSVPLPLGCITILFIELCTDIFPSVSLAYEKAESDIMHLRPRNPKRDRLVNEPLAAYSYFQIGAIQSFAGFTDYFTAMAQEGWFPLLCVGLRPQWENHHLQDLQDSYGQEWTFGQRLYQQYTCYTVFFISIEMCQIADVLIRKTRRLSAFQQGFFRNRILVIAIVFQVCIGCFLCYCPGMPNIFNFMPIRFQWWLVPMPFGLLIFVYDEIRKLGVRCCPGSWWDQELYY
T1 sequence (P18434 whole entry partner): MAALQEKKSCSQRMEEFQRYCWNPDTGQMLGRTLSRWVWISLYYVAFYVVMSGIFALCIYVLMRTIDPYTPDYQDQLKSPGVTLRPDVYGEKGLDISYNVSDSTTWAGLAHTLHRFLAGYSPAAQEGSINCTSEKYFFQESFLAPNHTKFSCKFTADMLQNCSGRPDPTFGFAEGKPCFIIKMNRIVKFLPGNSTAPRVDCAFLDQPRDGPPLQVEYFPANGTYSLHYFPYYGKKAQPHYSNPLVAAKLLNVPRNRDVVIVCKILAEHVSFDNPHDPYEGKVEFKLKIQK
Procedure: The (H^+ +K^+)-ATPase inhibiting activity of the present compounds [I] was determined in the following manner: […] The (H^+ +K^+)-ATPase used in the above test was prepared from the fundus ventriculi of fresh hog stomachs in accordance with the method of Saccomani et al. [The Journal of Biological Chemistry, Vol. 251, No. 23, p. 7690 (1976)]. […] The colorimetric measurement was effected at a wavelength range of from 360 to 400 nm. As a control experiment, the residual activity of (H^+ +K^+)-ATPase was determined in the same manner as above without addition of any test compounds. […] To be more specific, the difference between the colorimetric reading obtained in the control experiment and the colorimetric reading obtained with a test compound is calculated at various molar concentrations, and the difference is divided by the reading of the control experiment to give a rate of inhibition. With inhibition rates thus obtained, a density-inhibition rate curve is plotted, and the IC50 value is determined based on the curve. In the table is also shown, for the purpose of comparison, the (H^+ +K^+)-ATPase inhibiting activity of omeprazole determined in the same manner as above.

[3] = tested on: gastric acid secretion; assay: Gastric antisecretory effect (pylorus ligated rats); format: in vivo; settings: Rattus norvegicus; po; male Wistar rats; pylorus ligated 1 hour after administration, total acid after 4 hours; read-out: Gastric Antisecretory Effect, ED50 (inhibition of total gastric acid by 50%)
Procedure: Exactly 1 hour after the completion of the administration, the pyloric regions of their stomachs were ligated. After 4 hours, the total acid contained in the gastric juice of each rat was determined. […] To collect the gastric juice, the rats were killed, and their stomachs were cut open. The total acid in the gastric juice was determined by titrating the juice with aqueous 0.1N sodium hydroxide solution until its pH reached 7.0. As a control experiment, the total acid contained in the gastric juice of rats not administered with the compounds was also determined in the same manner as above. […] In order to determine the ED50 value, the difference in total acid between a group of rats administered with a test compound and a group of rats not administered with any of the test compounds was calculated, and the difference was then divided by the total acid of the latter rats, so as to obtain a rate of inhibition. With inhibition rates thus obtained, a dosage-effect curve was plotted, and the ED50 value was determined on the basis of the curve. In the table is also shown, for the purpose of comparison, the ED50 value of omeprazole determined in the same manner as above.

[4] = Acute toxicity (LD50); settings: rat, in vivo, 5 weeks old male Wistar rats
Procedure: Using 5 weeks old male Wistar rats, acute toxicity (LD50) of two representative compounds (compounds obtained in Examples 1 and 8) of the present compounds [I] was tested.

[5] = stored without any special precautions; background statement; cited from earlier work
[6] = ip, administered intraperitoneally

| SMILES | remaining at 144 h [1] [%] | IC50 [2] [µM] | ED50 [3] [mg/kg] | LD50 [4, 6] [mg/kg] | LD50 ([4]; po, administered orally) [mg/kg] | stability of omeprazole when stored (in words) [5] |
| --- | --- | --- | --- | --- | --- | --- |
| Cc1cnc(C[S+]([O-])c2nc3cc(OCC4CC4)ccc3[nH]2)c(C)c1 (stereo not drawn) [Example 1, 2-[2-(3,5-dimethyl)pyridylmethylsulfinyl]-5-cyclopropylmethyloxybenzimidazole] | 91 | 1800 | 17.8 | ≥ 500 | ≥ 4000 | – |
| Cc1ccnc(C[S+]([O-])c2nc3cc(OCC4CC4)ccc3[nH]2)c1 (stereo not drawn) [Example 2, 2-[2-(4-methyl)pyridylmethylsulfinyl]-5-cyclopropylmethyloxybenzimidazole] | 59 | 2100 | – | – | – | – |
| Cc1cnc(C[S+]([O-])c2nc3c(OCC4CC4)cccc3[nH]2)c(C)c1 (stereo not drawn) [Example 3, 2-[2-(3,5-dimethyl)pyridylmethylsulfinyl]-4-cyclopropylmethyloxybenzimidazole] | 88 | 900 | 19.5 | – | – | – |
| COc1c(C)cnc(C[S+]([O-])c2nc3cc(OCC4CC4)ccc3[nH]2)c1C (stereo not drawn) [Example 7, 2-[2-(4-methoxy-3,5-dimethyl)pyridylmethylsulfinyl]-5-cyclopropylmethyloxybenzimidazole] | 37 | 1700 | – | – | – | – |
| COc1cc(C[S+]([O-])c2nc3cc(OCC4CC4)ccc3[nH]2)ncc1C (stereo not drawn) [Example 8, 2-[2-(4-methoxy-5-methyl)pyridylmethylsulfinyl]-5-cyclopropylmethyloxybenzimidazole] | 32 | 300 | 25.9 | ≥ 500 | ≥ 4000 | – |
| COc1ccc2[nH]c([S+]([O-])Cc3ncc(C)c(OC)c3C)nc2c1 (stereo not drawn) [Omeprazole, 5-methoxy-2-[2-(4-methoxy-3,5-dimethyl)-pyridylmethylsulfinyl]benzimidazole, reference compound] | 5 | 1800 | 30.5 | – | – | degraded at an unexpectedly high rate |

More lines, in order of falling IC50 [2], values ahead:

| remaining at 144 h [1] [%] | IC50 [2] [µM] | SMILES | ED50 [3] [mg/kg] | LD50 [4, 6] [mg/kg] | LD50 ([4]; po, administered orally) [mg/kg] | stability of omeprazole when stored (in words) [5] |
| --- | --- | --- | --- | --- | --- | --- |
| 86 | 1900 | Cc1cnc(C[S+]([O-])c2nc3c(OCC4CC4)cccc3[nH]2)c(C)c1C (stereo not drawn) [Example 5, 2-[2-(3,4,5-trimethyl)pyridylmethylsulfinyl]-4-cyclopropylmethyloxybenzimidazole] | – | – | – | – |
| 67 | 1900 | COc1c(C)cnc(C[S+]([O-])c2nc3c(OCC4CC4)cccc3[nH]2)c1C (stereo not drawn) [Example 6, 2-[2-(4-methoxy-3,5-dimethyl)pyridylmethylsulfinyl]-4-cyclopropylmethyloxybenzimidazole] | – | – | – | – |
| 94 | 1000 | Cc1cnc(C[S+]([O-])c2nc3cc(OCC4CC4)ccc3[nH]2)c(C)c1C (stereo not drawn) [Example 4, 2-[2-(3,4,5-trimethyl)pyridylmethylsulfinyl]-5-cyclopropylmethyloxybenzimidazole] | 22.1 | – | – | – |
| 76 | 430 | COc1cc(C[S+]([O-])c2nc3c(OCC4CC4)cccc3[nH]2)ncc1C (stereo not drawn) [Example 9, 2-[2-(4-methoxy-5-methyl)pyridylmethylsulfinyl]-4-cyclopropylmethyloxybenzimidazole] | – | – | – | – |
